From patent US11666658B2, “Rifamycin analogs and antibody-drug conjugates thereof” (Regeneron Pharmaceuticals, Inc., priority 2018, dated 2023)
Converted amounts (≈) assume the structure as drawn.

Tests used:
Assay type in all cases: cell-based, Staphylococcus aureus
[1] = test system: S. aureus NRS384; assay: Broth minimum inhibitory concentration (MIC) assay 1, S. aureus growth inhibition; conditions: Staphylococcus aureus; S. aureus NRS384 in TSB, 24 h at 37° C., OD600 nm
Protocol: To test the potency of rifamycin analogs of the disclosure in vitro, a broth growth inhibition assay was developed. For the assay, S. aureus NRS384 was grown in Tryptic Soy Broth (TSB) overnight, then sub-cultured 1:50 in fresh TSB and grown for an additional two hours. The culture was then pelleted via centrifugation and washed twice in PBS. The culture was then diluted to 1×10^4 cfu/mL in TSB and 50 μL of the suspension was added per well to a 96 well microtiter dish in duplicate. A dilution series of the indicated antibiotic (an analog according to the disclosure or a previously known analog Rifampicin) was added 1:1 for a final starting concentration of 1×10^−5 M with 1:3 dilutions. The plates were incubated at 37° C. with shaking for 24 h and then the OD600 nm was read on a Spectramax i3 Minimax 300.
A plot of the S. aureus inhibition assay conducted with rifamycin analogs according to the disclosure is shown as FIG. 1.

[2] = test system: intracellular S. aureus NRS384 in THP-1 macrophages; assay: Intracellular killing assay 1 (rifamycin analogs, S. aureus in THP-1 macrophages); conditions: for MIC: Staphylococcus aureus, NRS384, lowest concentration that resulted in intracellular S. aureus eradication, 2 h with compound
Protocol: (§1) THP-1 monocytic cell line was grown in media (RMPI+10% FBS+1% Penicillin/Streptomycin), then seeded at a density of 1e5 cells/well in a 96 well plate and differentiated into macrophages for three days prior to infection using 200 nM PMA. An overnight culture of S. aureus NRS384 was grown in RPMI, washed twice with PBS and resuspended at 1e7 cfu/mL in PBS. THP-1 were washed with warm media (RMPI without FBS) to remove the Penicillin/Streptomycin and then infected with the S. aureus suspension at a multiplicity of infection of 10:1 (S. aureus: macrophages). Plates were spun at 300×g for 5 minutes to synchronize adhesion of the bacteria, then incubated at 37° C. for 2 hours. Free-floating bacteria were removed by washing 2× with warm media and remaining extracellular S. aureus were killed by addition of media containing gentamicin (50 ug/mL). After 1 h, media was aspirated and the indicated compound was added to infected macrophages in media containing 50 µg/mL gentamicin to prevent extracellular growth of S. aureus. After 2 h, plates were washed 2× with warm RPMI without FBS, and 100 ul of THP-1 lysis buffer (0.1% Triton in PBS) was added to each well. S. aureus survival was enumerated by colony forming units through serial dilution and plating onto TSA.

[3] = test system: S. aureus NRS384; assay: Broth minimum inhibitory concentration (MIC) assay 2; conditions: S. aureus NRS384 in TSB, 24 hours at 37° C., OD600, median of at least two independent experiments; for MIC: Staphylococcus aureus, read-out: S. aureus Broth MIC
Protocol: To test the potency of rifamycin analogs of the disclosure in vitro, a broth growth inhibition assay was developed. For the assay, S. aureus NRS384 was grown in Tryptic Soy Broth (TSB) overnight, then sub-cultured 1:50 in fresh TSB and grown for an additional two hours. The culture was then pelleted via centrifugation and washed twice in PBS. The culture was then diluted to 1×10^6 cfu/mL in TSB and 100 μL of the suspension was added per well to a 2 mL dilution plate in triplicate. […] The plates were sealed and incubated at 37° C. with shaking for 24 hours, then 150 μL of each sample was added to 96 well microtiter plates and the OD600 nm was read on a Spectramax i3 Minimax 300.
The broth MIC experiments were assessed in at least two independent experiments and the median value is captured below unless indicated otherwise.

[4] = test system: intracellular S. aureus NRS384 in THP-1 macrophages; assay: Intracellular killing assay 2 (rifamycin analogs, S. aureus in THP-1 macrophages); conditions: lowest concentration giving intracellular S. aureus below limit of detection (50 cfu/mL) in THP-1 macrophages, median of at least two experiments; for MIC: Staphylococcus aureus, NRS384, 2 h, read-out: S. aureus Intracellular killing MIC
Protocol: as §1, with “[…] The compounds were” for “After 1 h, media was aspirated and the indicated compound was”, “added” for “added to infected macrophages”, “hours,” for “h,”
The intracellular MIC value indicated represents the median value of at least two independent experiments, unless indicated otherwise.

SMILES	MIC [3]	MIC [4]	further results
COc1ccc2nc3c4c5c6c(C)c(O)c4c(=O)c(c-3oc2c1)NC(=O)/C(C)=C\C=C\[C@H](C)[C@H](O)[C@@H](C)[C@@H](O)[C@@H](C)[C@H](OC(C)=O)[C@H](C)[C@@H](OC)/C=C/O[C@@](C)(O6)C5=O [Analog 1a, Rifamycin 4-MeO-Phenol Analogs]	–	–	MIC [1]: 0.014 µM (≈ 0.0114 µg/mL); intracellular S. aureus killing capacity compared to rifampicin (in words) [2]: increased intracellular S. aureus killing capacity compared to rifampicin; MIC [2]: 1 µM (≈ 0.815 µg/mL)
CO[C@H]1/C=C/O[C@@]2(C)Oc3c(C)c(O)c4c(=O)c(c5oc6cc(OCc7ccccc7)ccc6nc-5c4c3C2=O)NC(=O)/C(C)=C\C=C\[C@H](C)[C@H](O)[C@@H](C)[C@@H](O)[C@@H](C)[C@H](OC(C)=O)[C@@H]1C [Analog 1b, Rifamycin 4-BnO-Phenol Analogs]	–	–	MIC [1]: 0.12 µM (≈ 0.107 µg/mL); MIC [2]: > 1 µM
CO[C@H]1/C=C/O[C@@]2(C)Oc3c(C)c(O)c4c(=O)c(c5n(C)c6cc(O)ccc6nc-5c4c3C2=O)NC(=O)/C(C)=C\C=C\[C@H](C)[C@H](O)[C@@H](C)[C@@H](O)[C@@H](C)[C@H](OC(C)=O)[C@@H]1C [Analog 1d, Rifamycin 4-OH-Phenol N-Methyl analogs]	–	–	MIC [1]: 0.37 µM (≈ 0.301 µg/mL); MIC [2]: > 1 µM
CO[C@H]1/C=C/O[C@@]2(C)Oc3c(C)c(O)c4c(=O)c(c5oc6cc(O)cc(O)c6nc-5c4c3C2=O)NC(=O)/C(C)=C\C=C\[C@H](C)[C@H](O)[C@@H](C)[C@@H](O)[C@@H](C)[C@H](OC(C)=O)[C@@H]1C [Analog 29k]	0.0625 µM (≈ 0.0511 µg/mL)	> 1 µM	–
CO[C@H]1/C=C/O[C@@]2(C)Oc3c(C)c(O)c4c(=O)c(c5oc6cc(OCCN(C)C)cc(Cl)c6nc-5c4c3C2=O)NC(=O)/C(C)=C\C=C\[C@H](C)[C@H](O)[C@@H](C)[C@@H](O)[C@@H](C)[C@H](OC(C)=O)[C@@H]1C [Analog 45]	0.00391 µM (≈ 0.00354 µg/mL)	1 µM (≈ 0.906 µg/mL)	–
CO[C@H]1/C=C/O[C@@]2(C)Oc3c(C)c(O)c4c(=O)c(c5oc6cc(OCCN(C)C)c(Cl)cc6nc-5c4c3C2=O)NC(=O)/C(C)=C\C=C\[C@H](C)[C@H](O)[C@@H](C)[C@@H](O)[C@@H](C)[C@H](OC(C)=O)[C@@H]1C [Analog 48]	0.0156 µM (≈ 0.0141 µg/mL)	1 µM (≈ 0.906 µg/mL)	–
CO[C@H]1/C=C/O[C@@]2(C)Oc3c(C)c(O)c4c(=O)c(c5oc6cc(OCCN(C)C)cc(F)c6nc-5c4c3C2=O)NC(=O)/C(C)=C\C=C\[C@H](C)[C@H](O)[C@@H](C)[C@@H](O)[C@@H](C)[C@H](OC(C)=O)[C@@H]1C [Analog 55]	0.0156 µM (≈ 0.0139 µg/mL)	0.2 µM (≈ 0.178 µg/mL)	–
CO[C@H]1/C=C/O[C@@]2(C)Oc3c(C)c(O)c4c(=O)c(c5oc6cc(O)cc(F)c6nc-5c4c3C2=O)NC(=O)/C(C)=C\C=C\[C@H](C)[C@H](O)[C@@H](C)[C@@H](O)[C@@H](C)[C@H](OC(C)=O)[C@@H]1C [Analog 55a]	0.0625 µM (≈ 0.0512 µg/mL)	> 1 µM	–
CO[C@H]1/C=C/O[C@@]2(C)Oc3c(C)c(O)c4c(=O)c(c5oc6cc(OCCN(C)C)cc(SC)c6nc-5c4c3C2=O)NC(=O)/C(C)=C\C=C\[C@H](C)[C@H](O)[C@@H](C)[C@@H](O)[C@@H](C)[C@H](OC(C)=O)[C@@H]1C [Analog 60]	0.00391 µM (≈ 0.00359 µg/mL)	0.2 µM (≈ 0.184 µg/mL)	–
CO[C@H]1/C=C/O[C@@]2(C)Oc3c(C)c(O)c4c(=O)c(c5oc6cccc(OCCN(C)C)c6nc-5c4c3C2=O)NC(=O)/C(C)=C\C=C\[C@H](C)[C@H](O)[C@@H](C)[C@@H](O)[C@@H](C)[C@H](OC(C)=O)[C@@H]1C [Analog 71]	0.0156 µM (≈ 0.0136 µg/mL)	> 1 µM	–
CO[C@H]1/C=C/O[C@@]2(C)Oc3c(C)c(O)c4c(=O)c(c5oc6cc(C#CCN(C)C)ccc6nc-5c4c3C2=O)NC(=O)/C(C)=C\C=C\[C@H](C)[C@H](O)[C@@H](C)[C@@H](O)[C@@H](C)[C@H](OC(C)=O)[C@@H]1C [Analog 72]	0.0625 µM (≈ 0.0541 µg/mL)	> 1 µM	–
CO[C@H]1/C=C/O[C@@]2(C)Oc3c(C)c(O)c4c(=O)c(c5oc6cc(CCCN(C)C)ccc6nc-5c4c3C2=O)NC(=O)/C(C)=C\C=C\[C@H](C)[C@H](O)[C@@H](C)[C@@H](O)[C@@H](C)[C@H](OC(C)=O)[C@@H]1C [Analog 75]	0.29 µM (≈ 0.252 µg/mL)	> 1 µM	–
CO[C@H]1/C=C/O[C@@]2(C)Oc3c(C)c(O)c4c(=O)c(c5oc6cccc(O)c6nc-5c4c3C2=O)NCC(=O)/C(C)=C\C=C\[C@H](C)[C@H](O)[C@@H](C)[C@@H](O)[C@@H](C)[C@H](OC(C)=O)[C@@H]1C [Analog P1]	–	–	S. aureus Broth MIC [3]: 0.0625 µM; S. aureus Intracellular killing MIC [4]: 0.2 µM
CO[C@H]1/C=C/O[C@@]2(C)Oc3c(C)c(O)c4c(=O)c(c5oc6cc(F)ccc6nc-5c4c3C2=O)NCC(=O)/C(C)=C\C=C\[C@H](C)[C@H](O)[C@@H](C)[C@@H](O)[C@@H](C)[C@H](O)[C@@H]1C [Analog P2]	–	–	S. aureus Broth MIC [3]: 0.0625 µM; S. aureus Intracellular killing MIC [4]: >1 µM

Now from value to compound, other results behind:

MIC [3]	SMILES	MIC [4]	further results
0.25 µM (≈ 0.222 µg/mL)	CO[C@H]1/C=C/O[C@@]2(C)Oc3c(C)c(O)c4c(=O)c(c5oc6cc(OCCNCCN)ccc6nc-5c4c3C2=O)NC(=O)/C(C)=C\C=C\[C@H](C)[C@H](O)[C@@H](C)[C@@H](O)[C@@H](C)[C@H](OC(C)=O)[C@@H]1C [Analog 35]	> 1 µM	–
0.0625 µM (≈ 0.0545 µg/mL)	CO[C@H]1/C=C/O[C@@]2(C)Oc3c(C)c(O)c4c(=O)c(c5oc6ccc(OCCN(C)C)cc6nc-5c4c3C2=O)NC(=O)/C(C)=C\C=C\[C@H](C)[C@H](O)[C@@H](C)[C@@H](O)[C@@H](C)[C@H](OC(C)=O)[C@@H]1C [Analog 38]	1 µM (≈ 0.872 µg/mL)	–
0.00391 µM (≈ 0.00353 µg/mL)	COc1cc(OCCN(C)C)cc2oc3c4c(=O)c5c(O)c(C)c6c(c5c-3nc12)C(=O)[C@@](C)(O/C=C/[C@H](OC)[C@@H](C)[C@@H](OC(C)=O)[C@H](C)[C@H](O)[C@H](C)[C@@H](O)[C@@H](C)/C=C/C=C(/C)C(=O)N4)O6 [Analog 43]	0.04 µM (≈ 0.0361 µg/mL)	–
0.0156 µM (≈ 0.0147 µg/mL)	CCCCOc1cc(OCCN(C)C)cc2oc3c4c(=O)c5c(O)c(C)c6c(c5c-3nc12)C(=O)[C@@](C)(O/C=C/[C@H](OC)[C@@H](C)[C@@H](OC(C)=O)[C@H](C)[C@H](O)[C@H](C)[C@@H](O)[C@@H](C)/C=C/C=C(/C)C(=O)N4)O6 [Analog 50]	1 µM (≈ 0.944 µg/mL)	–
0.0625 µM (≈ 0.0611 µg/mL)	CO[C@H]1/C=C/O[C@@]2(C)Oc3c(C)c(O)c4c(=O)c(c5oc6cc(OCCN(C)C)cc(OCc7ccccc7)c6nc-5c4c3C2=O)NC(=O)/C(C)=C\C=C\[C@H](C)[C@H](O)[C@@H](C)[C@@H](O)[C@@H](C)[C@H](OC(C)=O)[C@@H]1C [Analog 52]	1 µM (≈ 0.978 µg/mL)	–
0.0156 µM (≈ 0.0143 µg/mL)	CO[C@H]1/C=C/O[C@@]2(C)Oc3c(C)c(O)c4c(=O)c(c5oc6cc(OC7CCN(C)CC7)cc(O)c6nc-5c4c3C2=O)NC(=O)/C(C)=C\C=C\[C@H](C)[C@H](O)[C@@H](C)[C@@H](O)[C@@H](C)[C@H](OC(C)=O)[C@@H]1C [Analog 68]	0.2 µM (≈ 0.183 µg/mL)	–
